Measurements: ChEMBL document CHEMBL1201862, “PubChem BioAssay data set” (2004)
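Exposure lasted 48 hours, with cells grown in 96-well plates and compounds tested at five concentrations. GI50 = concentration required for 50% inhibition of growth.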 Calls of active or inactive are those of the source. No stated cut-off is given here; in the data, active = GI50 up to about 1.1 µM and inactive = higher.

Tests used:
Assay in all cases: DTP human tumour cell line panel, 48 h
786-0 = system: 786-0
A498 = system: A498
A549 = system: A549
ACHN = system: ACHN
BT-549 = system: BT-549
CAKI-1 = system: CAKI-1
CCRF-CEM = system: CCRF-CEM
COLO 205 = system: COLO 205
DU-145 = system: DU-145
EKVX = system: EKVX
HCC 2998 = system: HCC 2998
HCT-116 = system: HCT-116
HCT-15 = system: HCT-15
HL-60 = system: HL-60
HOP-92 = system: HOP-92
HT-29 = system: HT-29
Hs-578T = system: Hs-578T
IGROV-1 = system: IGROV-1
K562 = system: K562
KM12 = system: KM12
LOX IMVI = system: LOX IMVI
M14 = system: M14
MCF7 = system: MCF7
MDA-MB-231 = system: MDA-MB-231
MDA-MB-435 = system: MDA-MB-435
MDA-N = system: MDA-N
MOLT-4 = system: MOLT-4
Malme-3M = system: Malme-3M
NCI-H226 = system: NCI-H226
NCI-H23 = system: NCI-H23
NCI-H460 = system: NCI-H460
NCI-H522 = system: NCI-H522
NCI/ADR-RES = system: NCI/ADR-RES
OVCAR-3 = system: OVCAR-3
OVCAR-4 = system: OVCAR-4
OVCAR-8 = system: OVCAR-8
PC-3 = system: PC-3
RPMI-8226 = system: RPMI-8226
RXF 393 = system: RXF 393
SF-268 = system: SF-268
SF-295 = system: SF-295
SF-539 = system: SF-539
SK-MEL-28 = system: SK-MEL-28
SK-MEL-2 = system: SK-MEL-2
SK-MEL-5 = system: SK-MEL-5
SK-OV-3 = system: SK-OV-3
SN12C = system: SN12C
SNB-19 = system: SNB-19
SNB-75 = system: SNB-75
SR = system: SR
SW-620 = system: SW-620
T47D = system: T47D
U-251 = system: U-251
UACC-257 = system: UACC-257
UACC-62 = system: UACC-62
UO-31 = system: UO-31
HOP-62 = system: HOP-62
OVCAR-5 = system: OVCAR-5
TK-10 = system: TK-10

For COC(=O)C(CCCCN)NC(=O)C(CCCCN)NC(C)=O.Cc1ccc(C(=O)Nc2ccc(S(=O)(=O)O)c3cc(S(=O)(=O)O)cc(S(=O)(=O)O)c23)cc1NC(=O)c1cccc(NC(=O)Nc2cccc(C(=O)Nc3cc(C(=O)Nc4ccc(S(=O)(=O)O)c5cc(S(=O)(=O)O)cc(S(=O)(=O)O)c45)ccc3C)c2)c1, the GI50 (786-0) was > 50 µM (inactive), the GI50 (A498) was > 50 µM (inactive) and the GI50 (A549) was > 50 µM (inactive). For the same compound, the GI50 (ACHN) was > 50 µM (inactive), the GI50 (BT-549) was > 50 µM (inactive) and the GI50 (CAKI-1) was > 50 µM (inactive). For the same compound, the GI50 (CCRF-CEM) was > 50 µM (inactive), the GI50 (COLO 205) was > 50 µM (inactive) and the GI50 (DU-145) was > 50 µM (inactive). For the same compound, the GI50 (EKVX) was > 50 µM (inactive), the GI50 (HCC 2998) was > 50 µM (inactive) and the GI50 (HCT-116) was > 50 µM (inactive). For the same compound, the GI50 (HCT-15) was greater than 50 µM, the GI50 (HL-60) was > 50 µM (inactive) and the GI50 (HOP-92) was > 50 µM (inactive). The GI50 (HT-29) was > 50 µM (inactive), the GI50 (Hs-578T) was 39.1 µM (inactive) and the GI50 (IGROV-1) was > 50 µM (inactive). The GI50 (K562) was > 50 µM (inactive), the GI50 (KM12) was > 50 µM (inactive) and the GI50 (LOX IMVI) was > 50 µM (inactive). For the same compound, the GI50 (M14) was 10.6 µM (inactive), the GI50 (MCF7) was > 50 µM (inactive) and the GI50 (MDA-MB-231) was 16.2 µM (inactive). For the same compound, the GI50 (MDA-MB-435) was > 50 µM (inactive), the GI50 (MDA-N) was > 50 µM (inactive) and the GI50 (MOLT-4) was > 50 µM (inactive). For the same compound, the GI50 (Malme-3M) was > 50 µM (inactive), the GI50 (NCI-H226) was > 50 µM (inactive) and the GI50 (NCI-H23) was > 50 µM (inactive). The GI50 (NCI-H460) was > 50 µM (inactive), the GI50 (NCI-H522) was > 50 µM (inactive) and the GI50 (NCI/ADR-RES) was > 50 µM (inactive). The GI50 (OVCAR-3) was > 50 µM (inactive), the GI50 (OVCAR-4) was 8.73 µM (inactive) and the GI50 (OVCAR-8) was > 50 µM (inactive). For the same compound, the GI50 (PC-3) was > 50 µM (inactive), the GI50 (RPMI-8226) was > 50 µM (inactive) and the GI50 (RXF 393) was > 50 µM (inactive). The GI50 (SF-268) was > 50 µM (inactive), the GI50 (SF-295) was > 50 µM (inactive) and the GI50 (SF-539) was > 50 µM (inactive). For the same compound, the GI50 (SK-MEL-28) was > 50 µM (inactive), the GI50 (SK-MEL-2) was > 50 µM (inactive) and the GI50 (SK-MEL-5) was > 50 µM (inactive). The GI50 (SK-OV-3) was > 50 µM (inactive), the GI50 (SN12C) was > 50 µM (inactive) and the GI50 (SNB-19) was > 50 µM (inactive). For the same compound, the GI50 (SNB-75) was 7.59 µM (inactive), the GI50 (SR) was > 50 µM (inactive) and the GI50 (SW-620) was > 50 µM (inactive). For the same compound, the GI50 (T47D) was > 50 µM (inactive), the GI50 (U-251) was > 50 µM (inactive) and the GI50 (UACC-257) was > 50 µM (inactive). The GI50 (UACC-62) was > 50 µM (inactive) and the GI50 (UO-31) was > 50 µM (inactive).
NNC(=O)c1c(Cl)c(Cl)c(Cl)c(Cl)c1-c1nc2ccccc2[nH]1 was tested, and the GI50 (786-0) was 18.5 µM (inactive), the GI50 (A498) was 15 µM (inactive) and the GI50 (A549) was 10 µM (inactive). For the same compound, the GI50 (ACHN) was 17.1 µM (inactive), the GI50 (BT-549) was 14.9 µM (inactive) and the GI50 (CAKI-1) was 13.2 µM (inactive). For the same compound, the GI50 (CCRF-CEM) was 12.5 µM (inactive), the GI50 (COLO 205) was 16.4 µM (inactive) and the GI50 (DU-145) was 13.2 µM (inactive). For the same compound, the GI50 (EKVX) was 12.4 µM (inactive), the GI50 (HCC 2998) was 8.63 µM (inactive) and the GI50 (HCT-116) was 13.2 µM (inactive). The GI50 (HCT-15) was 5.07 µM, the GI50 (HL-60) was 4.7 µM (inactive) and the GI50 (HOP-62) was 4.29 µM (inactive). The GI50 (HOP-92) was 18.5 µM (inactive), the GI50 (HT-29) was 14.8 µM (inactive) and the GI50 (Hs-578T) was 18.1 µM (inactive). For the same compound, the GI50 (IGROV-1) was 1.18 µM (inactive), the GI50 (K562) was 3.25 µM (inactive) and the GI50 (KM12) was 6.76 µM (inactive). The GI50 (LOX IMVI) was 12.7 µM (inactive), the GI50 (M14) was 9.55 µM (inactive) and the GI50 (MCF7) was 2.96 µM (inactive). For the same compound, the GI50 (MDA-MB-231) was 21.3 µM (inactive), the GI50 (MDA-MB-435) was 2.12 µM (inactive) and the GI50 (MDA-N) was 2.94 µM (inactive). The GI50 (MOLT-4) was 4.66 µM (inactive), the GI50 (Malme-3M) was 14.3 µM (inactive) and the GI50 (NCI-H226) was 16.8 µM (inactive). For the same compound, the GI50 (NCI-H23) was 15.6 µM (inactive), the GI50 (NCI-H460) was 11.8 µM (inactive) and the GI50 (NCI-H522) was 13.4 µM (inactive). For the same compound, the GI50 (NCI/ADR-RES) was 6.34 µM (inactive), the GI50 (OVCAR-3) was 6.64 µM (inactive) and the GI50 (OVCAR-5) was 36.7 µM (inactive). For the same compound, the GI50 (OVCAR-8) was 29 µM (inactive), the GI50 (PC-3) was 16.6 µM (inactive) and the GI50 (RPMI-8226) was 7.4 µM (inactive). The GI50 (RXF 393) was 3.49 µM (inactive), the GI50 (SF-268) was 17.4 µM (inactive) and the GI50 (SF-295) was 4.91 µM (inactive). For the same compound, the GI50 (SF-539) was 20.4 µM (inactive), the GI50 (SK-MEL-28) was 15.8 µM (inactive) and the GI50 (SK-MEL-2) was 6.41 µM (inactive). The GI50 (SK-MEL-5) was 11.2 µM (inactive), the GI50 (SK-OV-3) was 15.7 µM (inactive) and the GI50 (SN12C) was 27 µM (inactive). For the same compound, the GI50 (SNB-19) was 19.6 µM (inactive), the GI50 (SNB-75) was 12.5 µM (inactive) and the GI50 (SR) was 2.63 µM (inactive). For the same compound, the GI50 (SW-620) was 10 µM (inactive), the GI50 (T47D) was 2.47 µM (inactive) and the GI50 (TK-10) was 21.6 µM (inactive). For the same compound, the GI50 (UACC-257) was 12.6 µM (inactive), the GI50 (UACC-62) was 10.4 µM (inactive) and the GI50 (UO-31) was 19.4 µM (inactive).
